# Measured values reported in patent US4115385A, “Antibacterial 3-(5-tetrazolyl) penam compounds” (Pfizer Inc., priority 1977, dated 1978).
# Tested on: Streptococcus pyogenes
# Assay: In vitro minimum inhibitory concentration (MIC) vs. Strep. pyogenes
# Type: cell-based
# Settings: Streptococcus pyogenes, read-out: MIC vs. Strep. pyogenes
# In short: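 Broth inoculated with bacteria and test antibiotic, incubated overnight and read visually; MIC is the lowest concentration preventing turbidity. Test preparations also contain some of the corresponding tetrazole tautomer.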
row,SMILES,MIC
1,"CN(C)C=N[C@@H](C(=O)N[C@@H]1C(=O)N2[C@@H]1SC(C)(C)[C@@H]2c1nnn[nH]1)c1ccc(O)cc1 [6-(D-2-[Dimethylaminomethyleneamino]-2-[p-hydroxyphenyl]-acetamido)-2,2-dimethyl-3-(5-tetrazolyl)-penam]",< 0.1 µg/mL
2,"CN(C)C=N[C@@H](C(=O)N[C@@H]1C(=O)N2[C@@H]1SC(C)(C)[C@@H]2c1nnn[nH]1)c1ccccc1 [6-(D-2-[Dimethylaminomethyleneamino]-2-phenylacetamido)-2,2-dimethyl-3-(5-tetrazolyl)penam]",< 0.1 µg/mL
3,"CCCS(=O)(=O)N[C@@H](C(=O)N[C@@H]1C(=O)N2[C@@H]1SC(C)(C)[C@@H]2c1nn[nH]n1)c1ccc(O)cc1 [6-(D-2-[Propanesulfonamido]-2-[p-hydroxyphenyl]acetamido-)-2,2-dimethyl-3-(5-tetrazolyl)penam]",0.1 µg/mL
4,"CC1(C)S[C@@H]2[C@H](NC(=O)[C@H](N)c3ccc(O)c(Cl)c3)C(=O)N2[C@H]1c1nnn[nH]1 [6-(D-2-amino-2-[3-chloro-4-hydroxyphenyl]acetamido)-2,2-dimethyl-3-(5-tetrazolyl)penam]",0.1 µg/mL
5,"CC1(C)S[C@@H]2[C@H](NC(=O)[C@H](NC(=O)CN)c3ccccc3)C(=O)N2[C@H]1c1nn[nH]n1 [D-2-(2-aminoacetamido)-2-phenylacetyl, 6-(D-2-[2-Aminoacetamido]-2-phenylacetamido)-2,2-dimethyl-3-(5-tetrazolyl)penam]",< 0.1 µg/mL
6,"CC1(C)S[C@@H]2[C@H](NC(=O)[C@H](NC(=O)CCl)c3ccccc3)C(=O)N2[C@H]1c1nn[nH]n1 [D-2-(2-chloroacetamido)-2-phenylacetyl, 6-(D-2-[2-Chloroacetamido]-2-phenylacetamido)-2,2-dimethyl-3-(5-tetrazolyl)penam]",< 0.1 µg/mL
7,CC1(C)S[C@@H]2[C@H](NC(=O)[C@H](NC(=O)c3ccco3)c3ccccc3)C(=O)N2[C@H]1c1nnn[nH]1 [D-2-(2-furancarboxamido)-2-phenylacetyl],0.1 µg/mL
8,CC1(C)S[C@@H]2[C@H](NC(=O)[C@H](NC(=O)Cc3ccccc3)c3ccccc3)C(=O)N2[C@H]1c1nnn[nH]1 [D-2-(2-phenylacetamido)-2-phenylacetyl],< 0.1 µg/mL
9,"CC1(C)S[C@@H]2[C@H](NC(=O)[C@H](NC(=O)NC(=O)c3ccco3)c3ccccc3)C(=O)N2[C@H]1c1nn[nH]n1 [D-2-(3-[2-furoyl]ureido)-2-phenylacetyl, 6-(D-2-[3-(2-Furoyl)ureido]-2-phenylacetamido)-2,2-dimethyl-3-(5-tetrazolyl)penam]",< 0.1 µg/mL
10,Cc1ccc(NC(=O)N[C@@H](C(=O)N[C@@H]2C(=O)N3[C@@H]2SC(C)(C)[C@@H]3c2nnn[nH]2)c2ccccc2)cc1 [D-2-(3-[p-tolyl]ureido)-2-phenylacetyl],< 0.1 µg/mL
11,"CC1(C)S[C@@H]2[C@H](NC(=O)[C@H](NC(=O)CCN)c3ccccc3)C(=O)N2[C@H]1c1nn[nH]n1 [D-2-(3-aminopropionamido)-2-phenylacetyl, 6-(D-2-[3-Aminopropionamido]-2-phenylacetamido)-2,2-dimethyl-3-(5-tetrazolyl)penam]",< 0.1 µg/mL
12,"CC1(C)S[C@@H]2[C@H](NC(=O)[C@H](NC(=O)NC(=N)N)c3ccccc3)C(=O)N2[C@H]1c1nnn[nH]1 [D-2-(3-guanylureido)-2-phenylacetyl, 6-(D-2-[3-Guanylureido]-2-phenylacetamido)-2,2-dimethyl-3-(5-tetrazolyl)penam]",< 0.1 µg/mL
13,"CC1(C)S[C@@H]2[C@H](NC(=O)[C@H](NC(=S)Nc3ccccc3)c3ccccc3)C(=O)N2[C@H]1c1nnn[nH]1 [D-2-(3-phenylthioureido)-2-phenylacetyl, 6-(D-2-[3-Phenylthioureido]-2-phenylacetamide)-2,2-dimethyl-3-(5-tetrazol)penam]",< 0.1 µg/mL
14,CC1(C)S[C@@H]2[C@H](NC(=O)[C@H](NC(=O)Nc3ccccc3)c3ccccc3)C(=O)N2[C@H]1c1nnn[nH]1 [D-2-(3-phenylureido)-2-phenylacetyl],< 0.1 µg/mL
15,"CC1(C)S[C@@H]2[C@H](NC(=O)[C@H](NC(=O)c3ccc(N)cc3)c3ccccc3)C(=O)N2[C@H]1c1nn[nH]n1 [D-2-(4-aminobenzamido)-2-phenylacetyl, 6-(D-2-[4-Aminobenzamido]-2-phenylacetamido)-2,2-dimethyl-3-(5-tetrazolyl)penam]",< 0.1 µg/mL
16,CC1(C)S[C@@H]2[C@H](NC(=O)[C@H](NC(=O)c3ccccc3)c3ccccc3)C(=O)N2[C@H]1c1nnn[nH]1 [D-2-(benzamido)-2-phenylacetyl],< 0.1 µg/mL
17,"CC1(C)S[C@@H]2[C@H](NC(=O)[C@H](NC(=O)NC(N)=O)c3ccccc3)C(=O)N2[C@H]1c1nnn[nH]1 [D-2-allophanamido-2-phenylacetyl, 6-(D-2-Allophanamido-2-phenylacetamido)-2,2-dimethyl-3-(5-tetrazolyl)penam]",< 0.1 µg/mL
18,"CC1(C)S[C@@H]2[C@H](NC(=O)[C@H](N)C3=CCC=CC3)C(=O)N2[C@H]1c1nnn[nH]1 [D-2-amino-2-(1,4-cyclohexadienyl)acetyl, 6-(D-2-Amino-2-[1,4-cyclohexadienyl]acetamido)-2,2-dimethyl-3-(5-tetrazolyl)penam]",< 0.1 µg/mL
19,CC1(C)S[C@@H]2[C@H](NC(=O)[C@H](N)C3CCCO3)C(=O)N2[C@H]1c1nnn[nH]1 (stereo partly drawn) [D-2-amino-2-(2-tetrahydrofuryl)acetyl],< 0.1 µg/mL
20,"CC1(C)S[C@@H]2[C@H](NC(=O)[C@H](N)c3cccc(N)c3)C(=O)N2[C@H]1c1nnn[nH]1 [D-2-amino-(3-aminophenyl)acetyl, 6-(D-2-Amino-2-[3-aminophenyl]acetamido)-2,2-dimethyl-3-(5-tetrazolyl)penam]",< 0.1 µg/mL

# Same assay, conditions: Streptococcus pyogenes; Table II; two-fold serial dilution, Brain-Heart Infusion broth, overnight; read-out: MIC vs. Strep. pyogenes
row,MIC,SMILES
1,0.004 µg/mL,"CN=C(NC)SCC(=O)N[C@@H](C(=O)N[C@@H]1C(=O)N2[C@@H]1SC(C)(C)[C@@H]2c1nn[nH]n1)c1ccccc1 [6-(D-2-[N,N'-dimethylamidinothio)acetamido]-2-phenylacetamido)-2,2-dimethyl-3-(5-tetrazolyl)penam]"
2,1.56 µg/mL,"CC1(C)S[C@@H]2[C@H](NC(=O)[C@H](NC(=O)c3ccc(NC(=N)N)cc3)c3ccccc3)C(=O)N2[C@H]1c1nn[nH]n1 [6-(D-2-[p-Guanidinobenzamido]-2-phenylacetamido)-2,2-dimethyl-3-(5-tetrazolyl)penam]"
3,0.2 µg/mL,CC1(C)S[C@@H]2[C@H](NC(=O)[C@H](NC(=O)CN=[N+]=[N-])c3ccccc3)C(=O)N2[C@H]1c1nnn[nH]1 [D-2-(2-azicoacetamido)-2-phenylacetyl]
4,0.004 µg/mL,CC1(C)S[C@@H]2[C@H](NC(=O)[C@H](NC(=O)CC#N)c3ccccc3)C(=O)N2[C@H]1c1nnn[nH]1 [D-2-(2-cyanoacetamido)-2-phenylacetyl]
5,0.004 µg/mL,CC1(C)S[C@@H]2[C@H](NC(=O)[C@H](NC(=O)COc3ccccc3)c3ccccc3)C(=O)N2[C@H]1c1nnn[nH]1 [D-2-(2-phenoxyacetamido)-2-phenylacetyl]
6,50 µg/mL,CNC(=O)N[C@@H](C(=O)N[C@@H]1C(=O)N2[C@@H]1SC(C)(C)[C@@H]2c1nnn[nH]1)c1ccccc1 [D-2-(3-methylureido)-2-phenylacetyl]
7,0.004 µg/mL,"CC1(C)S[C@@H]2[C@H](NC(=O)[C@H](NC(=O)c3ccc([N+](=O)[O-])cc3)c3ccccc3)C(=O)N2[C@H]1c1nn[nH]n1 [D-2-(4-nitrobenzamido)-2-phenylacetyl, 6-(D-2-[4-nitrobenzamido]-2-phenylacetamido)-2,2-dimethyl-3-(5-tetrazolyl)penam]"
8,50 µg/mL,CC(=O)C(=O)N[C@@H](C(=O)N[C@@H]1C(=O)N2[C@@H]1SC(C)(C)[C@@H]2c1nnn[nH]1)c1ccccc1 [D-2-(acetylformamido)-2-phenylacetyl]
9,25 µg/mL,CC1(C)S[C@@H]2[C@H](NC(=O)[C@H](NC(=O)C(=O)c3ccccc3)c3ccccc3)C(=O)N2[C@H]1c1nnn[nH]1 [D-2-(benzoylformamido)-2-phenylacetyl]
10,0.39 µg/mL,CCCC(=O)N[C@@H](C(=O)N[C@@H]1C(=O)N2[C@@H]1SC(C)(C)[C@@H]2c1nnn[nH]1)c1ccccc1 [D-2-(butyramido)-2-phenylacetyl]
11,0.39 µg/mL,CCS(=O)(=O)N[C@@H](C(=O)N[C@@H]1C(=O)N2[C@@H]1SC(C)(C)[C@@H]2c1nn[nH]n1)c1ccccc1 [D-2-(ethanesulfonamido)-2-phenylacetyl]
12,6.25 µg/mL,CCOC(=O)N[C@@H](C(=O)N[C@@H]1C(=O)N2[C@@H]1SC(C)(C)[C@@H]2c1nnn[nH]1)c1ccccc1 [D-2-(ethoxycarbonylamino)-2-phenylacetyl]
13,0.004 µg/mL,"CC(=O)C(C(=O)NC1C(=O)N2C(c3nnn[nH]3)C(C)(C)S[C@H]12)c1ccccc1 (stereo partly drawn) [D-2-acetyl-2-phenylacetyl, 6-(2-Acetyl-2-phenylacetamido)-2,2-dimethyl-3-(5-tetrazolyl)penam]"
14,0.39 µg/mL,CC1(C)S[C@@H]2[C@H](NC(=O)[C@H](N)c3ccco3)C(=O)N2[C@H]1c1nnn[nH]1 [D-2-amino-2-(2-furyl)acetyl]
15,3.12 µg/mL,"CC1(C)S[C@@H]2[C@H](NC(=O)[C@H](N)c3ccc(F)cc3)C(=O)N2[C@H]1c1nnn[nH]1 [D-2-amino-2-(p-fluorophenyl)acetyl, 6-(D-2-amino-2-[p-fluorophenyl]acetamido)-2,2-dimethyl-3-(5-tetrazolyl)penam]"
16,0.39 µg/mL,"CC1(C)S[C@@H]2[C@H](NC(=O)[C@H](N)c3ccc(N)cc3)C(=O)N2[C@H]1c1nnn[nH]1 [D-2-amino-(4-aminophenyl)acetyl, 6-(D-2-Amino-2-[4-aminophenyl]acetamido)-2,2-dimethyl-3-(5-tetrazolyl)penam]"
17,0.004 µg/mL,"CC1(C)S[C@@H]2[C@H](NC(=O)[C@@H](c3ccccc3)N3C(=O)c4ccccc4C3=O)C(=O)N2[C@H]1c1nnn[nH]1 [D-2-phthalimido-2-phenylacetyl, 6-(D-2-Phthalimido-2-phenylacetamido)-2,2-dimethyl-3-(5-tetrazolyl)penam]"

# Same assay, conditions: Streptococcus pyogenes; Table IV; read-out: MIC vs. Strep. pyogenes
row,MIC,SMILES
1,12.5 µg/mL,"CN(C)C=N[C@@H]1C(=O)N2[C@@H]1SC(C)(C)[C@@H]2c1nnn[nH]1 [6-([Dimethylamino]methyleneamino)-2,2-dimethyl-3-(5-tetrazolyl)penam]"
2,50 µg/mL,"CC1(C)S[C@@H]2[C@H](N=CN3CCCCCC3)C(=O)N2[C@H]1c1nnn[nH]1 [6-([Hexahydro-1-azepinyl]methyleneamino)-2,2-dimethyl-3-(5-tetrazolyl)penam]"
